{"source": "paper PMC7764606", "about": "(Cancers, 2020)", "key": {"[1]": {"test_system": "AKR1C3 expression in A549 cells", "assay": "AKR1C3 protein levels in A549 cells by western blotting", "format": "cell-based, human", "conditions": "1, 5 and 10 µM, 72 h, western blot relative to β-actin", "procedure": "A549 cells were incubated with DMSO or BTK inhibitors (1, 5, and 10 µM) for 72 h, and then total protein was extracted for analysis of AKR1C3 expression by western blotting (WB) as per methods described previously. A representative WB is shown for IBR (A) and ACA (B) incubations, and bars represent AKR1C3 protein levels as determined by densitometry relative to β-actin (n = 3, mean ± SD). Uncropped images from WB are available in Figure S1 in the Supplementary Materials. On the other hand, HCT116-EV and HCT116-C3 cells were treated with increasing concentrations of IBR (C) and ACA (D) for 72 h, and their viability was assessed by MTT assay. Graphs represent a comparison of the dose-response curves for percentages of cell viability in each cell line (n = 6, mean ± SD)."}, "recombinant AKR1B10": {"test_system": "T1, recombinant AKR1B10", "T1 construct": "made in house; host or cells: Escherichia coli", "assay": "Reduction of Dau by recombinant AKR1B10 (UHPLC detection of Dau-ol)", "format": "biochemical, Human", "conditions": "Dau 500 µM, relative to DMSO", "procedure": "(§1) Human recombinant CREs (CBR1, AKR1A1, 1B1, 1B10, 7A2, and 1C3) were produced by an Escherichia coli expression system as per methods described previously. For the inhibitory assay, each recombinant enzyme, CBR1 (1 µg), AKR1A1 (1 µg), AKR1B1 (5 µg), AKR1B10 (5 µg), AKR7A2 (3 µg), or AKR1C3 (1.5 µg) was incubated with BTK inhibitors at different concentrations (10 and 50 µM) and the substrate Dau (500 µM). For analysis using the Lineweaver-Burk plot, 1.5 µg of recombinant AKR1C3 was incubated with DMSO or BTK inhibitors (1, 5, and 10 µM) and Dau (200, 400, 600, 800, 1000, and 2000 µM). […] The incubations and further metabolite detection were further performed by using ultra-high-performance liquid chromatography (UHPLC) as per methods described previously."}, "[2]": {"test_system": "T2, AKR1C3 in HCT116-C3 cells", "T2 construct": "expressed in transfected cells; host or cells: HCT116", "assay": "Dau metabolism to Dau-ol in HCT116 cells transiently overexpressing AKR1C3", "format": "cell-based, human", "conditions": "5 h", "procedure": "(§2) HCT116 cells were seeded (1.25 × 10^5 cells/well) in 24-well plates and cultured for 24 h. For the transient expression of the recombinant human AKR1C3, the cells were transfected with a pCI_AKR1C3 or empty pCI plasmid as control (previously described in a study by Hofman et al.) according to the manufacturer’s instructions (jetPRIME® Transfection Reagent; Polyplus Transfection®, Illkirch, France). For each 24-well plate, a mixture of 0.75 µL of the jetPRIME® Transfection Reagent and 0.25 µg of plasmid was incubated for 10 min at room temperature. Then, polyplexes were added to the HCT116 cells with 0.5 mL of fresh DMEM supplemented with 10% FBS and incubated for 24 h (37 °C, 5% CO2). The expression of recombinant AKR1C3 was verified by western blotting as per methods described previously.\n(§3) After transfection of HCT116 cells or seeding of A549 cells (25 × 10^3 cells/well) in 24-well plates for 24 h, the medium was harvested and replaced with DMEM supplemented with 10% FBS containing 1 µM daunorubicin, with or without increasing concentrations (1, 5, and 10 μM) of BTK inhibitors. Cells were incubated (37 °C, 5% CO2) for 2.5 and 5 h (transfected HCT116) or only 5 h (A549). Then, the medium was collected and the cells were lysed in lysis buffer (25 mM Tris, 150 mM NaCl, and 1% Triton X-100, pH 7.8) for 15 min at room temperature. The collected medium was combined with cell lysate for further extraction and analysis of metabolites, as per methods described previously."}, "A549 cells": {"test_system": "A549 cells", "assay": "Intracellular metabolism of Dau in A549 cells", "format": "cell-based, human", "conditions": "5 h", "procedure": "as §3"}, "recombinant AKR1C3": {"target": "T3, recombinant AKR1C3 (Homo sapiens, UniProt P42330)", "T3 construct": "made in house; host or cells: Escherichia coli", "T3 sequence (P42330 1-323)": "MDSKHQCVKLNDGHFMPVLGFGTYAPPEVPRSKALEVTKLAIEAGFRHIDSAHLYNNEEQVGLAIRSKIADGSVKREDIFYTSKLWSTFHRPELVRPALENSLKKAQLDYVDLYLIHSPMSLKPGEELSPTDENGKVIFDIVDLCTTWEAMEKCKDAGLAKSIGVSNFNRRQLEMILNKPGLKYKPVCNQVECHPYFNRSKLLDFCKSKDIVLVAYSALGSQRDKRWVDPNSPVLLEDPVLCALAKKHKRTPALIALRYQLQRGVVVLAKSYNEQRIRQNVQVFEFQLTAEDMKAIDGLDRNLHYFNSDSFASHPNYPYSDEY", "assay": "Reduction of Dau by recombinant AKR1C3 (UHPLC detection of Dau-ol)", "format": "biochemical", "conditions": "for reduction of AKR1C3 activity (Dau reduction): Dau 500 µM, relative to DMSO; for Ki: read-out: Ki^app (Morrison equation for tight-binding inhibitors)", "procedure": "as §1"}, "HCT116-C3 cells": {"test_system": "HCT116-C3 cells", "assay": "MTT cell viability, HCT116-C3 cells (incl. Chou-Talalay analysis)", "format": "cell-based, human", "procedure": "as §2\nThe synergistic effect of BTK inhibitors on Dau cytotoxicity was evaluated in transfected HCT116 and A549 cells by IC50 determination. Twenty-four hours prior to the experiment, transfected HCT116 cells (8 × 10^3 cells/well) or A549 cells (5 × 10^3 cells/well) were seeded in 96-well plates. The cell culture medium was replaced with fresh medium containing increasing amounts of Dau (final concentrations: 0.01, 0.05, 0.1, 0.25, 0.5, 0.75, 1, and 10 µM) with or without BTK inhibitors (final concentrations: 1, 5, and 10 µM). After 72 h of incubation under standard conditions (37 °C, 5% CO2), cell viability was assessed by MTT (Sigma-Aldrich, Prague, Czech Republic) assay. For this, 50 µL of the MTT solution (3 mg/mL) was added to each well and incubated for 30 min. The supernatant was collected, and the cell monolayers were dissolved in 100 µL of DMSO. The absorbance was measured at 570 and 690 nm by a microplate reader Infinite M200 (Tecan, Salzburg, Austria), and the background values at 690 nm were subtracted from the absorbance obtained at 570 nm. The half-maximal inhibitory concentrations (IC50) were calculated using GraphPad Prism 8.1.2. The drug combination pharmacodynamics were determined by the Chou-Talalay method using the CompuSyn ver. 3.0.1 software (ComboSyn Inc., Paramus, NJ, USA)."}, "[3]": {"conditions": "HCT116-C3, BTK-inhibitor 5 µM + Dau 0.25 µM"}, "[4]": {"conditions": "HCT116-C3, BTK-inhibitor 10 µM + Dau 0.25 µM"}}, "note": "Like-named read-outs stand apart in the source and are kept apart here.", "data": [{"smiles": "CC#CC(=O)N1CCC[C@H]1c1nc(-c2ccc(C(=O)Nc3ccccn3)cc2)c2c(N)nccn12", "note": "[Acalabrutinib, acalabrutinib]", "values": [{"measurement": "effect on expression (protein levels) of AKR1C3", "setting": "[1]", "value": "negligible or absence of effects"}, {"measurement": "inhibition of AKR1B10 activity (Dau reduction)", "setting": "recombinant AKR1B10; 10 µM BTK inhibitor", "value": "did not show significant inhibition"}, {"measurement": "inhibition of AKR1B10 activity (Dau reduction)", "setting": "recombinant AKR1B10; 50 µM BTK inhibitor", "value": "9.36% ± 2.53%"}, {"measurement": "decrease in AKR1C3 activity (Dau to Dau-ol)", "setting": "[2]; 1 µM BTK inhibitor + 1 µM Dau", "value": "31.96% ± 13.51%"}, {"measurement": "decrease in AKR1C3 activity (Dau to Dau-ol)", "setting": "[2]; 5 µM BTK inhibitor + 1 µM Dau", "value": "67.15% ± 10.35%"}, {"measurement": "decrease in AKR1C3 activity (Dau to Dau-ol)", "setting": "[2]; 10 µM BTK inhibitor + 1 µM Dau", "value": "65.56% ± 1.53%"}, {"measurement": "reduction of intracellular metabolism of Dau", "setting": "A549 cells; 1 µM BTK inhibitor + 1 µM Dau", "value": "12.13% ± 5.19%"}, {"measurement": "reduction of intracellular metabolism of Dau", "setting": "A549 cells; 5 µM BTK inhibitor + 1 µM Dau", "value": "34.32% ± 7.09%"}, {"measurement": "reduction of intracellular metabolism of Dau", "setting": "A549 cells; 10 µM BTK inhibitor + 1 µM Dau", "value": "44.24% ± 9.06%"}, {"measurement": "reduction of AKR1C3 activity (Dau reduction)", "setting": "recombinant AKR1C3; 10 µM BTK inhibitor", "value": "89.55% ± 4%"}, {"measurement": "reduction of AKR1C3 activity (Dau reduction)", "setting": "recombinant AKR1C3; 50 µM BTK inhibitor", "value": "96.28% ± 1.58%"}, {"measurement": "Ki", "setting": "recombinant AKR1C3; AKR1C3 0.005 mg/mL (0.135 μM)", "value": 451, "unit": "nM"}, {"measurement": "Ki", "setting": "recombinant AKR1C3; AKR1C3 0.015 mg/mL (0.405 μM)", "value": 521, "unit": "nM"}, {"measurement": "Ki", "setting": "recombinant AKR1C3; AKR1C3 0.030 mg/mL (0.811 μM)", "value": 566, "unit": "nM"}, {"measurement": "mode of inhibition (Lineweaver-Burk plot)", "setting": "recombinant AKR1C3; recombinant AKR1C3 with increasing Dau", "value": "non-competitive/mixed"}, {"measurement": "Dose reduction index for Dau", "setting": "HCT116-C3 cells; [3]", "value": "1.38 ± 0.37"}, {"measurement": "Fraction affected (Fa %)", "setting": "HCT116-C3 cells; [3]", "value": "34.59 ± 5.75", "unit": "%"}, {"measurement": "Fraction affected (Fa %)", "setting": "HCT116-C3 cells; HCT116-C3, BTK-inhibitor 5 µM + Dau 0.50 µM", "value": "68.43 ± 1.41", "unit": "%"}, {"measurement": "Fraction affected (Fa %)", "setting": "HCT116-C3 cells; HCT116-C3, BTK-inhibitor 5 µM + Dau 0.75 µM", "value": "79.88 ± 0.40", "unit": "%"}, {"measurement": "Fraction affected (Fa %)", "setting": "HCT116-C3 cells; HCT116-C3, BTK-inhibitor 5 µM + Dau 1.00 µM", "value": "86.61 ± 1.29", "unit": "%"}, {"measurement": "Dose reduction index for Dau", "setting": "HCT116-C3 cells; [4]", "value": "1.77 ± 0.75"}, {"measurement": "Fraction affected (Fa %)", "setting": "HCT116-C3 cells; [4]", "value": "40.91 ± 11.4", "unit": "%"}, {"measurement": "Fraction affected (Fa %)", "setting": "HCT116-C3 cells; HCT116-C3, BTK-inhibitor 10 µM + Dau 0.50 µM", "value": "77.47 ± 0.69", "unit": "%"}, {"measurement": "Fraction affected (Fa %)", "setting": "HCT116-C3 cells; HCT116-C3, BTK-inhibitor 10 µM + Dau 0.75 µM", "value": "87.59 ± 1.02", "unit": "%"}, {"measurement": "Fraction affected (Fa %)", "setting": "HCT116-C3 cells; HCT116-C3, BTK-inhibitor 10 µM + Dau 1.00 µM", "value": "91.62 ± 0.29", "unit": "%"}, {"measurement": "IC50", "setting": "HCT116-C3 cells; Homo sapiens, HCT116-C3, 72 h MTT, read-out: IC50 of BTK inhibitor alone (cell viability)", "value": 32200, "unit": "nM"}, {"measurement": "relative resistance (RR)", "setting": "HCT116-C3 cells; IC50 in HCT116-C3 divided by IC50 in HCT116-EV", "value": 0.97}]}]}
